# Assay results from US20260116921A1, “PEPTIDE INHIBITORS OF INTERLEUKIN-23 RECEPTOR AND THEIR USE TO TREAT INFLAMMATORY DISEASES” (priority 2018, published 2026).
# Numbered stars: 1 amine (or outer) side, 2 acyl side, 3 side chain; on linkers, the order of the positions; unused ones are H or OH. Bridge positions count the residues as written; N and C are the ends. Square brackets hold non-standard residues; d marks the D form. Peptide text beside a SMILES is read from it. X2 = CCCc1cccc2c(C[C@H](N[*:1])C(=O)[*:2])c[nH]c12; Trp(7-Me) = Cc1cccc2c(C[C@H](N)C(=O)O)c[nH]c12; 2Nal = N[C@@H](Cc1ccc2ccccc2c1)C(=O)O; AEF = NCCOc1ccc(C[C@H](N)C(=O)O)cc1; Cit = NC(=O)NCCC[C@H](N)C(=O)O; Pen = CC(C)(S)[C@H](N)C(=O)O; αMeK = C[C@](N)(CCCCN)C(=O)O; βAla = NCCC(=O)O
# T1: IL-23R (Homo sapiens, UniProt Q5VWK5)
# T1 sequence (Q5VWK5 24-629): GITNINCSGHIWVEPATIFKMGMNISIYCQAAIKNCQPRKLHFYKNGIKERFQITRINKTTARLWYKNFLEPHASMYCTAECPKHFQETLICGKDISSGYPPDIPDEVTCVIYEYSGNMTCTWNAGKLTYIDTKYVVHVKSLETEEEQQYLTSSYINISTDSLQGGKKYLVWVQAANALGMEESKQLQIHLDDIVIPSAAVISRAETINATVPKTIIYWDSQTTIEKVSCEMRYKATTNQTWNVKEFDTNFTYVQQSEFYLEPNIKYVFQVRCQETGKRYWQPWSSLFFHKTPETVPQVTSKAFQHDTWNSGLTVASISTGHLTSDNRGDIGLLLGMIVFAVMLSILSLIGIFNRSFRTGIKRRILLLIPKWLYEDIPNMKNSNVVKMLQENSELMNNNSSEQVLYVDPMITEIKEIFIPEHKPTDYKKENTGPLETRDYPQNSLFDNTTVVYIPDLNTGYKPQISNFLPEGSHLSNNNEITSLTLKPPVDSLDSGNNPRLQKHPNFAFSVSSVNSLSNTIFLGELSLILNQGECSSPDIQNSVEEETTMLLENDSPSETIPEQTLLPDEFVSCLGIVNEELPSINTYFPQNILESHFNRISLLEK
# T2: IL-23R (human, UniProt Q5VWK5 24-629)
# T2 sequence (looked up): T1 sequence (Q5VWK5 24-629)
# B1: SEQ ID NO: 249 (peptide)
# peptide: XNTXKXXXXKNX
# modifications: Ac-[Pen]-NT-[W(7-Me)]-[Lys(Ac)]-[Pen]-Phe[4-(2-aminoethoxy)]-[2-Nal]-[a-MeLys]-[Lys(Ac)]-N-[Cit]-NH2; Pen-Pen disulfide
# Experiments:
# [1] = in vitro; conditions: both, SD, rat, plasma (EDTA)
# [2] = in vitro; type: in vitro ADME; design: half-life: dose or concentration left out as unconfirmed; conditions: simulated intestinal fluid (SIF) with pancreatin, pH 6.8, 37° C., § matrix is 100 fold dilution of standard SIF concentration, read-out: SIF t½ (converted)
# [3] = in vitro; conditions: human, 20% fecal homogenate (supernatant), anaerobic, pH 6.8
# [4] = in vitro; conditions: cynomolgus monkey, 20% fecal homogenate (supernatant), anaerobic, pH 6.8
# [5] = biological target: T1, IL-23R; assay: DB cells IL23R pSTAT3 cell assay (pStat3 HTRF); type: cell-based; conditions: Table E3; DB cells, IL-23 0.5 nM, 30 minutes at 37° C.; read-out: pStat3 HTRF (IC50)
# Procedure, shortened: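 HTRF readout of lysate pSTAT3 (Tyr705) after two-plate processing. Peptide dilution series co-incubated with IL-23 (0.5 nM final) on 5×10E5 IL-23R-expressing DB cells per well, 30 min, 37 °C.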
# [6] = biological target: T2, IL-23R; assay: cell-based or functional assay
pStat3 HTRF (nM) IC50 [6] [nM],Molecule,half-life at 20 μM [1] [min],half-life [2] [min],half-life at 20 μM [3] [min],half-life at 20 μM [4] [min],IC50 [5] [nM]
–,CCCc1cccc2c(C[C@@H]3NC(=O)[C@H]([C@@H](C)O)NC(=O)[C@H](CC(N)=O)NC(=O)[C@@H](NC(C)=O)C(C)(C)SSC(C)(C)[C@@H](C(=O)N[C@@H](Cc4ccc(OCCN)cc4)C(=O)N[C@@H](Cc4ccc5ccccc5c4)C(=O)N[C@@](C)(CCCCN)C(=O)N[C@@H](CCCCNC(C)=O)C(=O)N[C@@H](CC(N)=O)C(=O)N[C@H](CC(C)C)C(N)=O)NC(=O)[C@H](CCCCNC(C)=O)NC3=O)c[nH]c12 [compound 285] (Ac-[Pen]NT[X2]K(Ac)[Pen][AEF][2Nal][αMeK]K(Ac)N[dL]-NH2; disulfide 1-6),> 1440,540,> 1440,> 1440,< 1
–,CC(=O)NCCCC[C@@H]1NC(=O)[C@H](Cc2c[nH]c3c(C)cccc23)NC(=O)[C@H]([C@@H](C)O)NC(=O)[C@H](CC(N)=O)NC(=O)[C@@H](NC(C)=O)C(C)(C)SSC(C)(C)[C@@H](C(=O)N[C@@H](Cc2ccc(OCCN)cc2)C(=O)N[C@@H](Cc2ccc3ccccc3c2)C(=O)N[C@@](C)(CCCCN)C(=O)N[C@@H](CCCCNC(C)=O)C(=O)N[C@@H](CC(N)=O)C(=O)N[C@H](C(N)=O)C(C)C)NC1=O [compound 250],> 1440,1020,> 1440,720,1 to 10
–,CC(=O)NCCCC[C@@H]1NC(=O)[C@H](Cc2c[nH]c3c(C)cccc23)NC(=O)[C@H]([C@@H](C)O)NC(=O)[C@H](CC(N)=O)NC(=O)[C@@H](NC(C)=O)C(C)(C)SSC(C)(C)[C@@H](C(=O)N[C@@H](Cc2ccc(OCCN)cc2)C(=O)N[C@@H](Cc2ccc3ccccc3c2)C(=O)N[C@@](C)(CCCCN)C(=O)N[C@@H](CCCCNC(C)=O)C(=O)N[C@@H](CC(N)=O)C(=O)N2CCC[C@H]2C(N)=O)NC1=O [compound 253],> 1440,660,60,180,1 to 10
–,CC(=O)NCCCC[C@H](NC(=O)[C@](C)(CCCCN)NC(=O)[C@H](Cc1ccc2ccccc2c1)NC(=O)[C@H](Cc1ccc(OCCN)cc1)NC(=O)[C@H]1NC(=O)[C@H](CCCNC(N)=O)NC(=O)[C@H](Cc2c[nH]c3c(C)cccc23)NC(=O)[C@H]([C@@H](C)O)NC(=O)[C@H](CC(N)=O)NC(=O)[C@@H](NC(C)=O)C(C)(C)SSC1(C)C)C(=O)N[C@@H](CC(N)=O)C(=O)N[C@H](CO)C(N)=O [compound 261] (Ac-[Pen]NT[Trp(7-Me)][Cit][Pen][AEF][2Nal][αMeK]K(Ac)N[dS]-NH2; disulfide 1-6),> 1440,1080,> 1440,240,< 1
–,CC(=O)NCCCC[C@@H]1NC(=O)[C@H](Cc2c[nH]c3c(C)cccc23)NC(=O)[C@H]([C@@H](C)O)NC(=O)[C@H](CC(N)=O)NC(=O)[C@@H](NC(C)=O)C(C)(C)SSC(C)(C)[C@@H](C(=O)N[C@@H](Cc2c[nH]cn2)C(=O)N[C@@H](Cc2ccc3ccccc3c2)C(=O)N[C@@](C)(CCCCN)C(=O)N[C@@H](CCCCNC(C)=O)C(=O)N[C@@H](CC(N)=O)C(=O)N[C@H](CC(C)C)C(N)=O)NC1=O [compound 290] (Ac-[Pen]NT[Trp(7-Me)]K(Ac)[Pen]H[2Nal][αMeK]K(Ac)N[dL]-NH2; disulfide 1-6),> 1440,960,> 1440,> 1440,1 to 10
–,CC(=O)NCCCC[C@H](NC(=O)[C@](C)(CCCCN)NC(=O)[C@H](Cc1ccc2ccccc2c1)NC(=O)[C@H](Cc1ccc(OCCN)cc1)NC(=O)[C@H]1NC(=O)[C@H](CCCNC(N)=O)NC(=O)[C@H](Cc2c[nH]c3c(C)cccc23)NC(=O)[C@H]([C@@H](C)O)NC(=O)[C@H](CC(N)=O)NC(=O)[C@@H](NC(C)=O)C(C)(C)SSC1(C)C)C(=O)N[C@@H](CC(N)=O)C(=O)N[C@@H](C(N)=O)[C@H](C)O [compound 263] (Ac-[Pen]NT[Trp(7-Me)][Cit][Pen][AEF][2Nal][αMeK]K(Ac)N[dT]-NH2; disulfide 1-6),> 1440,840,> 1440,540,< 1
–,CC(=O)NCCCC[C@@H]1NC(=O)[C@H](Cc2c[nH]c3c(C)cccc23)NC(=O)[C@H]([C@@H](C)O)NC(=O)[C@H](CC(N)=O)NC(=O)[C@@H](NC(C)=O)C(C)(C)SSC(C)(C)[C@@H](C(=O)N[C@@H](Cc2ccc3ccccc3c2)C(=O)N[C@@H](Cc2ccc3ccccc3c2)C(=O)N[C@@](C)(CCCCN)C(=O)N[C@@H](CCCCNC(C)=O)C(=O)N[C@@H](CC(N)=O)C(=O)N[C@H](CC(C)C)C(N)=O)NC1=O [compound 289] (Ac-[Pen]NT[Trp(7-Me)]K(Ac)[Pen][2Nal][2Nal][αMeK]K(Ac)N[dL]-NH2; disulfide 1-6),> 1440,720,> 1440,> 1440,1 to 10
–,CC(=O)N[C@@H]1C(=O)N[C@@H](CC(N)=O)C(=O)N[C@@H]([C@@H](C)O)C(=O)N[C@@H](Cc2c[nH]c3c(C)cccc23)C(=O)N[C@@H](CCC(N)=O)C(=O)N[C@H](C(=O)N[C@@H](Cc2ccc(OCCN)cc2)C(=O)N[C@@H](Cc2ccc3ccccc3c2)C(=O)N[C@@](C)(CCCCN)C(=O)N[C@@H](CCCNC(N)=O)C(=O)NCCC(=O)NCCC(N)=O)C(C)(C)SSC1(C)C [compound 279],> 1440,420,> 1440,> 1440,1 to 10
–,CC(=O)NCCCC[C@@H]1NC(=O)[C@H](Cc2c[nH]c3c(C)cccc23)NC(=O)[C@H]([C@@H](C)O)NC(=O)[C@H](CC(N)=O)NC(=O)[C@@H](NC(C)=O)C(C)(C)SSC(C)(C)[C@@H](C(=O)N[C@@H](Cc2ccc(OCCN)cc2)C(=O)N[C@@H](Cc2ccc3ccccc3c2)C(=O)N[C@@](C)(CCCCN)C(=O)N[C@@H](CCCCNC(C)=O)C(=O)N[C@@H](CC(N)=O)C(=O)N2CCC[C@@H]2C(N)=O)NC1=O [compound 254],720,960,> 1440,> 1440,1 to 10
–,CC(=O)NCCCC[C@H](NC(=O)[C@](C)(CCCCN)NC(=O)[C@H](Cc1ccc2ccccc2c1)NC(=O)[C@H](Cc1ccc(OCCN)cc1)NC(=O)[C@H]1NC(=O)[C@H](CCCNC(N)=O)NC(=O)[C@H](Cc2c[nH]c3c(C)cccc23)NC(=O)[C@H]([C@@H](C)O)NC(=O)[C@H](CC(N)=O)NC(=O)[C@@H](NC(C)=O)C(C)(C)SSC1(C)C)C(=O)N[C@@H](CC(N)=O)C(=O)N[C@H](Cc1ccc(O)cc1)C(N)=O [compound 259] (Ac-[Pen]NT[Trp(7-Me)][Cit][Pen][AEF][2Nal][αMeK]K(Ac)N[dY]-NH2; disulfide 1-6),> 1440,720,> 1440,960,< 1
–,CCC(CC)(NC(=O)[C@H](Cc1ccc2ccccc2c1)NC(=O)[C@H](Cc1ccc(OCCN)cc1)NC(=O)[C@H]1NC(=O)[C@H](CCC(N)=O)NC(=O)[C@H](Cc2c[nH]c3c(C)cccc23)NC(=O)[C@H]([C@@H](C)O)NC(=O)[C@H](CC(N)=O)NC(=O)[C@@H](NC(C)=O)C(C)(C)SSC1(C)C)C(=O)N[C@@H](CCCCNC(C)=O)C(=O)N[C@@H](CC(N)=O)C(=O)NCCC(N)=O [compound 276],300,780,> 1440,780,< 1
< 1,B1,–,–,–,–,–
< 1,Ac-[Pen]NT[Trp(7-Me)][Cit][Pen][AEF][2Nal][αMeK]K(Ac)N[dT]-NH2 (disulfide 1-6 (inferred)) [SEQ ID NO: 263],–,–,–,–,–
< 1,Ac-[Pen]NT[Trp(7-Me)][Cit][Pen][AEF][2Nal][αMeK]K(Ac)N[dR]-NH2 (disulfide 1-6 (inferred)) [SEQ ID NO: 256],–,–,–,–,–
> 100,"Ac-[Pen]NT[Trp(2,5,7-tritBu)]Q[Pen][AEF][2Nal][αMeK]K(Ac)N[βAla]-NH2 (disulfide 1-6) [SEQ ID NO: 233]",–,–,–,–,–
< 1,Ac-[Pen]NT[Trp(7-Me)][Cit][Pen][AEF][2Nal][αMeK]K(Ac)NS-NH2 (disulfide 1-6 (inferred)) [SEQ ID NO: 260],–,–,–,–,–
